US20210107953A1, “ACTIVE POLYPEPTIDE COMPOUND” (SHAANXI MICOT TECHNOLOGY LIMITED COMPANY, priority 2019, published 2021)

Assays:
[1] = tested on: ovary removed SD rats (OVX induced rat osteoporosis model); test: Bone mineral density (DXA) in ovariectomy-induced osteoporosis rats; assay type: in vivo; settings: for 0 w Bone mineral density lumbar vertebra / 0 w Bone mineral density thigh bone: 0 w (before administration, baseline); for 25 w Bone mineral density lumbar vertebra / 25 w Bone mineral density thigh bone / 0-25 w percentage of change % lumbar vertebra (bone mineral density) / 0-25 w percentage of change % thigh bone (bone mineral density): 5 times a week; for 0-25 w percentage of change % lumbar vertebra (bone mineral density) / 0-25 w percentage of change % thigh bone (bone mineral density): 25 w vs before administration
Excerpt: The animals had free access to water. […] 1) Bone mineral density (BMD) was detected with a dual-energy X-ray bone densitometry (DXA) before model establishment (−13 w), before administration (0 w), and 6 w, 12 w, 25 w, 37 w and 49 w after administration. […] The data were represented by mean value±standard error. Percentage of bone mineral density change=(bone mineral density at the detection time point−bone density before administration)/bone density before administration*100%

[2] = tested on: retinoic acid-induced osteoporosis rats; test: Three-point mechanical test of thigh bone in retinoic acid-induced osteoporosis rats; assay type: in vivo, SD rats; settings: 12 w; for Peak load of three-point mechanics (thigh bone): RA-induced osteoporosis rats
Protocol: Experimental method: SD rats were administered by gavage to induce a rat osteoporosis model. After model establishment, the rats were randomly grouped according to bone mineral densities of thigh bone: (1) vehicle group (Control group): normal saline was subcutaneously administered in an equal volume to the test compound, and soybean oil was administered by gavage in an equal volume to retinoic acid; (2) Model group: normal saline of the same volume was subcutaneously administered; and administered with retinoic acid (RA) by gavage every other day to maintain osteoporosis state; (3) 20 μg dosage group of positive drug abaloptide (Aba-20): 10 μg/kg abaloptide was subcutaneously administered, and retinoic acid was administered by gavage every other day. Administration groups of three dosages were set for each test compound. −10 μg/kg dosage group of the test compound: 10 μg/kg test compound was subcutaneously administered, and retinoic acid was administered by gavage every other day. −20 μg/kg dosage group of the test compound: 20 μg/kg test compound was subcutaneously administered, and retinoic acid was administered by gavage every other day. −40 μg/kg dosage group of the test compound: 40 μg/kg test compound was subcutaneously administered, and retinoic acid was administered by gavage every other day. The administration was carried out 5 times a week, with normal saline as the diluent of test drug, and the administration successively lasted for 12 weeks. The induction dosage of retinoic acid was about 80 mg/kg and the maintenance dosage after model establishment was about 30 mg/Kg, and solvent of inducing agent was soybean oil. […] The thigh bone on the left was subjected to three-point bending test, and the thigh bone on the right was subjected to CT scan and was used to prepare a pathological section. Statistical analysis of data: the data were treated with SPSS 20 software. The data in line with normality test were subjected to one-way analysis of variance; and the data not in line with normality test were subjected to rank sum test. The data were represented by mean value±standard error.

[3] = tested on: retinoic acid-induced osteoporosis rats; test: CT detection of bone microstructure of thigh bone in retinoic acid-induced osteoporosis rats; assay type: in vivo, SD rats; settings: RA-induced osteoporosis rats, 12 w
Protocol: The data were represented by mean value±standard error. After the experiment was completed, thigh bone on the right side of rats were collected, and subjected to CT detection, and […] (BV/TV), the number of trabeculae (TbN) and trabeculae spacing (TbSp) were calculated, and the results were shown in Table 4. An example was selected from each of Control group, Model group, abaloptide group, 20 μg/kg dosage group of Example 1, 20 μg/kg dosage group of Example 2 and 20 μg/kg dosage group of Example 5, and the scanned figures by micron X-ray 3D imaging system of trochlea of their thigh bone were shown in FIG. 1.

[4] = 5 μg/kg subcutaneous, listed as abaloptide

Ala-Val-Ser-Glu-His-Gln-Leu-Leu-His-Asp-Lys-Gly-Lys-Ser-Ile-Gln-Asp-Leu-Arg-Arg-Arg-Glu-Leu-Leu-Glu-Lys-Leu-Leu-Ala-Lys-Leu-His-Thr-Ala-Tyr-Arg-Gly-Phe-Gly-Gly (AVSEHQLLHDKGKSIQDLRRRELLEKLLAKLHTAYRGFGG; The sequence is synthesized) [Example 3]
0 w Bone mineral density lumbar vertebra ([1]; 2.5 μg/kg group): 0.24 ± 0 g/cm^2
0 w Bone mineral density thigh bone ([1]; 2.5 μg/kg group): 0.23 ± 0 g/cm^2
25 w Bone mineral density lumbar vertebra ([1]; 2.5 μg/kg subcutaneous): 0.27 ± 0 g/cm^2
25 w Bone mineral density thigh bone ([1]; 2.5 μg/kg subcutaneous): 0.26 ± 0 g/cm^2
0-25 w percentage of change % lumbar vertebra (bone mineral density) ([1]; 2.5 μg/kg subcutaneous): 12.4 ± 2.2 %
0-25 w percentage of change % thigh bone (bone mineral density) ([1]; 2.5 μg/kg subcutaneous): 14.03 ± 1.81 %
0 w Bone mineral density lumbar vertebra ([1]; 5 μg/kg group): 0.24 ± 0 g/cm^2
0 w Bone mineral density thigh bone ([1]; 5 μg/kg group): 0.23 ± 0 g/cm^2
25 w Bone mineral density lumbar vertebra ([1]; 5 μg/kg subcutaneous): 0.29 ± 0.01 g/cm^2
25 w Bone mineral density thigh bone ([1]; 5 μg/kg subcutaneous): 0.29 ± 0.02 g/cm^2
0-25 w percentage of change % lumbar vertebra (bone mineral density) ([1]; 5 μg/kg subcutaneous): 20.41 ± 2.56 %
0-25 w percentage of change % thigh bone (bone mineral density) ([1]; 5 μg/kg subcutaneous): 27.19 ± 1.33 %
0 w Bone mineral density lumbar vertebra ([1]; 10 μg/kg group): 0.24 ± 0.01 g/cm^2
0 w Bone mineral density thigh bone ([1]; 10 μg/kg group): 0.23 ± 0 g/cm^2
25 w Bone mineral density lumbar vertebra ([1]; 10 μg/kg subcutaneous): 0.29 ± 0.01 g/cm^2
25 w Bone mineral density thigh bone ([1]; 10 μg/kg subcutaneous): 0.29 ± 0 g/cm^2
0-25 w percentage of change % lumbar vertebra (bone mineral density) ([1]; 10 μg/kg subcutaneous): 22.46 ± 2.25 %
0-25 w percentage of change % thigh bone (bone mineral density) ([1]; 10 μg/kg subcutaneous): 28.7 ± 1.6 %
Peak load of three-point mechanics (thigh bone) ([2]; 10 μg/kg subcutaneous): 97.65 N
Peak load of three-point mechanics (thigh bone) ([2]; 20 μg/kg subcutaneous): 126.54 N
Peak load of three-point mechanics (thigh bone) ([2]; 40 μg/kg subcutaneous): 131.74 N
BV/TV (CT, thigh bone) ([3]; 10 μg/kg subcutaneous): 0.33
TbN, number of trabeculae (CT, thigh bone) ([3]; 10 μg/kg subcutaneous): 4.17 mm^−1
TbSp, trabeculae spacing (CT, thigh bone) ([3]; 10 μg/kg subcutaneous): 0.20 mm
BV/TV (CT, thigh bone) ([3]; 20 μg/kg subcutaneous): 0.30
TbN, number of trabeculae (CT, thigh bone) ([3]; 20 μg/kg subcutaneous): 4.21 mm^−1
TbSp, trabeculae spacing (CT, thigh bone) ([3]; 20 μg/kg subcutaneous): 0.17 mm
BV/TV (CT, thigh bone) ([3]; 40 μg/kg subcutaneous): 0.39
TbN, number of trabeculae (CT, thigh bone) ([3]; 40 μg/kg subcutaneous): 4.22 mm^−1
TbSp, trabeculae spacing (CT, thigh bone) ([3]; 40 μg/kg subcutaneous): 0.15 mm

abaloptide [reference compound]
0 w Bone mineral density lumbar vertebra ([1]; 5 μg/kg group): 0.24 ± 0 g/cm^2
0 w Bone mineral density thigh bone ([1]; 5 μg/kg group): 0.23 ± 0 g/cm^2
25 w Bone mineral density lumbar vertebra ([1]; 5 μg/kg subcutaneous): 0.3 ± 0 g/cm^2
25 w Bone mineral density thigh bone ([1]; 5 μg/kg subcutaneous): 0.3 ± 0 g/cm^2
0-25 w percentage of change % lumbar vertebra (bone mineral density) ([1]; 5 μg/kg subcutaneous): 21.66 ± 2.12 %
0-25 w percentage of change % thigh bone (bone mineral density) ([1]; 5 μg/kg subcutaneous): 30.28 ± 2 %
0-25 w percentage of change % lumbar vertebra (bone mineral density) [1, 4]: 21.66±2.12%
0-25 w percentage of change % thigh bone (bone mineral density) [1, 4]: 30.28±2%
peak load of thigh bone compared with Model group ([2]; 20 μg/kg dosage group): did not significantly increase
Peak load of three-point mechanics (thigh bone) ([2]; 20 μg/kg subcutaneous): 119.57 N
BV/TV (CT, thigh bone) ([3]; 20 μg/kg subcutaneous): 0.28
TbN, number of trabeculae (CT, thigh bone) ([3]; 20 μg/kg subcutaneous): 3.4 mm^−1
TbSp, trabeculae spacing (CT, thigh bone) ([3]; 20 μg/kg subcutaneous): 0.22 mm
